Source: patent publication US9949479B2 (priority 2015, dated 2018)
Converted amounts (≈) assume the structure as drawn.

System: Fusarium graminearum
Experiment: microbe, parasite or virus in culture
Assay type: cell-based

Q: Which ED50 (F.g carbendazim-resistant strains) does the source give for `CC1(C)CCC(Cc2ccc(Cl)cc2)C1(O)Cn1cncn1` (stereo not drawn) [Metconazole] here?
A: The ED50 was 0.113 µg/mL (≈ 0.353 µM).

Q: What about the ED50 (F.g phenamacril-resistant strains) of the same molecule?
A: Its ED50 is 0.115 µg/mL (≈ 0.36 µM).

Q: And the inhibition at 0.125 µg/mL (Fusarium graminearum, read-out: inhibitory effect on hyphal growth)?
A: Its inhibition at 0.125 µg/mL is greater than 50%.
